Measured values from patent publication US20230312550A1, “N-(2-(4-CYANOTHIAZOLIDIN-3-YL)-2-OXOETHYL)-QUINOLINE-4-CARBOXAMIDES” (AstraZeneca AB, priority 2020, published 2023).
Converted amounts (≈) assume the structure as drawn.

Assays:
[1] = target: human Fibroblast activation protein alpha (hFAP) (Homo sapiens (Human), UniProt Q12884); assay: hFAP inhibition assay (tight binders); format: biochemical; conditions: Ala-Pro-AMC 20 μM, n = 1 or geometric mean n = 2-6; further: hFAP 2.4 pM
Experimental: The plates were read on a PHERAstar® reader with excitation 340 nm and emission 460 nm. Data were analyzed in Genedata Screener®. IC50 values were determined by plotting % inhibition versus log compound concentration and using a one site dose response model.

hFAP (M39-A757) = hFAP (M39-A757) (Homo sapiens (Human), UniProt Q12884); assay: hFAP binding assay (surface plasmon resonance); conditions: SPR, 20° C.; for hFAP Binding assay k(off) / hFAP Binding assay k(on): single cycle kinetics; for Kd: n = 1 or geometric mean n = 2-4
hFAP (M39-A757), sequence (Q12884 39-757): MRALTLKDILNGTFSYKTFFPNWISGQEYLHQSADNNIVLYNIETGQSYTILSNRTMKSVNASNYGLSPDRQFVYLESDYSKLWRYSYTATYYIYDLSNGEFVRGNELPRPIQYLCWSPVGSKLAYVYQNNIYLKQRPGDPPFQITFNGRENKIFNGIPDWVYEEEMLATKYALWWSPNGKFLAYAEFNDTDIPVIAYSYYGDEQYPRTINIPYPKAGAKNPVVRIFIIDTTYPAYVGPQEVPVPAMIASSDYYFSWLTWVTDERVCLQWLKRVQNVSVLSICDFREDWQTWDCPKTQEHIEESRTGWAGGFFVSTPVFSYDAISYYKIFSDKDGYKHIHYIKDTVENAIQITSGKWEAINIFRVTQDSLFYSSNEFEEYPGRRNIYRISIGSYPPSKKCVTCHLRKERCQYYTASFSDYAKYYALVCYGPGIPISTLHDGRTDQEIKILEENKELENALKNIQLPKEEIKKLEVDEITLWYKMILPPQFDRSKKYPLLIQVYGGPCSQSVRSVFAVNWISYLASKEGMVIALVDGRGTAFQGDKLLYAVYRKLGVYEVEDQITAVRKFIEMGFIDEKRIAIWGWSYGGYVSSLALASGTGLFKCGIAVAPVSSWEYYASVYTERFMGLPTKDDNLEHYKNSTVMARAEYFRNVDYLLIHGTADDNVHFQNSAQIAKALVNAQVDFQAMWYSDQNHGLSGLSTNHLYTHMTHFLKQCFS

[2] = target: Prolyl endopeptidase, Prolyl Oligopeptidase (hPREP) (Homo sapiens (Human), UniProt P48147); assay: hPrep inhibition assay; format: biochemical; conditions: hPREP 0.6 nM, Z-Gly-Pro-amino-methylcoumarin 50 μM; read-out: PREP IC50
Prolyl endopeptidase, Prolyl Oligopeptidase (hPREP), sequence (P48147 whole entry): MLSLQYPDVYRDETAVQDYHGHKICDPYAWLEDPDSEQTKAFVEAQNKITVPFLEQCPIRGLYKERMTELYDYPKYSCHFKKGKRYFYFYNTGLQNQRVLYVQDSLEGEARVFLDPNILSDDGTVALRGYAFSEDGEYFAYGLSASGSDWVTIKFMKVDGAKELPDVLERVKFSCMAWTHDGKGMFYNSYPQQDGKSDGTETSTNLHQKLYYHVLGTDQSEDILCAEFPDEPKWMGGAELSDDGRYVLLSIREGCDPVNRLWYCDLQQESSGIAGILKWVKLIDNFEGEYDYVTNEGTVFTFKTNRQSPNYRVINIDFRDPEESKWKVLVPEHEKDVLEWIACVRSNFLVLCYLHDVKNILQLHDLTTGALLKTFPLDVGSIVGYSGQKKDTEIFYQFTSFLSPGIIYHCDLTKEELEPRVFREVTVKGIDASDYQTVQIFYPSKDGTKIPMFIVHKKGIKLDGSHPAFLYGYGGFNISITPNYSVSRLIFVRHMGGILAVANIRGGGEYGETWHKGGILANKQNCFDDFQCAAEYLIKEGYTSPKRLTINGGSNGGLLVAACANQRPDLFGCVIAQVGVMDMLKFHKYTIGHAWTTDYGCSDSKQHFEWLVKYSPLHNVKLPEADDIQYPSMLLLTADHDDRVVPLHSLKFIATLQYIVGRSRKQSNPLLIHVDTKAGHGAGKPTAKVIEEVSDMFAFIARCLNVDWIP
Summary of the method: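 Recombinant human PREP at 0.6 nM final with Z-Gly-Pro-AMC substrate at 50 μM final in Tris-HCl pH 7.5, NaCl, Triton X-100, glutathione; 15 min rt preincubation then 20 min rt reaction in dark. AMC fluorescence (ex 340/em 460 nm); IC50 from one-site dose-response fit of % inhibition.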

Kinetic solubility = conditions: kinetic from dmso stock
Experimental: Kinetic solubility was measured as described in Comput Aided Mol Des 2015, 29, 795.

Caco-2 cell permeability = conditions: human
Experimental: Caco-2 cell permeability was measured as described in Mol Pharm 2017, 14, 1601.

[3] = Metabolic stability in rat hepatocytes (rHep); conditions: n = 1 or geometric mean of n = 2-3
[4] = Metabolic stability in human liver microsomes (HLM); conditions: human
Experimental: Metabolic stability in HLM was measured as described in J Comput Aided Mol Des 2015, 29, 795.

[5] = Solubility, kinetic solubility, n = 1 or average of n = 2-3
[6] = HLM CLint, n = 1 or average of n = 2-3

human Fibroblast activation protein alpha (hFAP), sequence (Q12884 38-760): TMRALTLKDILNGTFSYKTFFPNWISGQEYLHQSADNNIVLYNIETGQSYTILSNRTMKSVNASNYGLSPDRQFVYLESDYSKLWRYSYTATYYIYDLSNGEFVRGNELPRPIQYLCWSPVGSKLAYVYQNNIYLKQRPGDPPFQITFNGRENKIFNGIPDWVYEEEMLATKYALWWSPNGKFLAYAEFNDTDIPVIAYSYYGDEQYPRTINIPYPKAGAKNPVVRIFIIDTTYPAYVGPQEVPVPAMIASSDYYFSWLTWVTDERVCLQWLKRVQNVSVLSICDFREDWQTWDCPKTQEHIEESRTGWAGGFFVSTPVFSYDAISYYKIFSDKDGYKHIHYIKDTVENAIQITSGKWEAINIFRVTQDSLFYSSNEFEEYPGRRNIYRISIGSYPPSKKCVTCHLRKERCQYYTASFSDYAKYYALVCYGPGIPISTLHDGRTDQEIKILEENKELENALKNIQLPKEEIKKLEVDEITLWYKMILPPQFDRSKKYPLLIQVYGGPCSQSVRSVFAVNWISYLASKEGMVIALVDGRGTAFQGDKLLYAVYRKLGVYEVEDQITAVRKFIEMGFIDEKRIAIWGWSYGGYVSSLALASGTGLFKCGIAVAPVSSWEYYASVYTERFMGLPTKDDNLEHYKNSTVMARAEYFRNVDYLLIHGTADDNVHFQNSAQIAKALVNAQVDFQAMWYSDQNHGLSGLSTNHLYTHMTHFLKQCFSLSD

| SMILES | IC50 [1] [nM] | hFAP Binding assay k(off) (hFAP (M39-A757)) [s⁻¹] | hFAP Binding assay k(on) (hFAP (M39-A757)) [M⁻¹ s⁻¹] | Kd (hFAP (M39-A757)) [nM] | IC50 [2] [nM] | solubility (Kinetic solubility; [5]) [µM] | Papp A→B (Caco-2 cell permeability) [×10⁻⁶ cm/s] | Papp B→A (Caco-2 cell permeability) [×10⁻⁶ cm/s] | efflux ratio (Caco-2 cell permeability) | rHep CLint [3] [μL/min/1E6] | microsomal CLint [4, 6] [µL/min/mg] | Papp (Caco-2 cell permeability) [×10⁻⁶ cm/s] | solubility (Kinetic solubility) [µM] | microsomal CLint [4] [µL/min/mg] |
| --- | --- | --- | --- | --- | --- | --- | --- | --- | --- | --- | --- | --- | --- | --- |
| CC(C)C1(O)CCN(c2ccc3nccc(C(=O)NCC(=O)N4CSC[C@H]4C#N)c3c2)CC1 [Example 192, (R)—N-(2-(4-Cyanothiazolidin-3-yl)-2-oxoethyl)-6-(4-hydroxy-4-isopropyl-piperidin-1-yl)quinoline-4-carboxamide] | 0.051 | 0.000014 | 1300000 | 0.0077 | 200 | 530 (≈ 248 µg/mL) | 0.51 | 39 | 76 | 2.9 | 28 | – | – | – |
| N#C[C@@H]1CSCN1C(=O)CNC(=O)c1ccnc2ccc(N3C[C@H](O)C(F)(F)C3)cc12 (mixture of isomers) [Example 224, N-(2-((R)-4-Cyanothiazolidin-3-yl)-2-oxoethyl)-6-((RS)-3,3-difluoro-4-hydroxypyrrolidin-1-yl)quinoline-4-carboxamide] | 0.073 | 0.000068 | 3000000 | 0.023 | 670 | 50 | – | – | – | <1 | < 3 | 1.2 | – | – |
| C[C@]1(F)CCN(c2ccc3nccc(C(=O)NCC(=O)N4CSC[C@H]4C#N)c3c2)C1 (mixture of isomers) [Example 198, N-(2-((R)-4-Cyanothiazolidin-3-yl)-2-oxoethyl)-6-((RS)-3-fluoro-3-methylpyrrolidin-1-yl)quinoline-4-carboxamide] | 0.056 | 0.00011 | 2900000 | 0.038 | 410 | 38 | 3.4 | 36 | 11 | 22 | 20 | – | – | – |
| N#C[C@@H]1CSCN1C(=O)CNC(=O)c1ccnc2ccc(N3CC4CCC(C3)O4)cc12 [Example 79, 6-(8-Oxa-3-azabicyclo[3.2.1]octan-3-yl)-N-(2-((R)-4-cyanothiazolidin-3-yl)-2-oxoethyl)quinoline-4-carboxamide] | 0.043 | 0.00012 | 16000000 | 0.018 | 630 | 610 (≈ 267 µg/mL) | 1.1 | 33 | 29 | 6.2 | 21 | – | – | – |
| N#C[C@@H]1CSCN1C(=O)CNC(=O)c1ccnc2ccc(N3CCOC(F)(F)C3)cc12 [Example 4, (R)—N-(2-(4-Cyanothiazolidin-3-yl)-2-oxoethyl)-6-(2,2-difluoromorpholino)-quinoline-4-carboxamide] | 0.058 | 0.000094 | 1200000 | 0.079 | 1100 | 55 (≈ 24.6 µg/mL) | 1.6 | 28 | 18 | 14 | 50 | – | – | – |
| C[C@@H]1CCN(c2ccc3nccc(C(=O)NCC(=O)N4CSC[C@H]4C#N)c3c2)C1=O (single isomer, unassigned) [Example 202, N-(2-((R)-4-Cyanothiazolidin-3-yl)-2-oxoethyl)-6-((R*)-3-methyl-2-oxopyrrolidin-1-yl)quinoline-4-carboxamide] | 0.044 | 0.000070 | 1600000 | 0.043 | 550 | 140 (≈ 59.3 µg/mL) | – | – | – | <1 | 7.7 | 5.2 | – | – |
| N#C[C@@H]1CSCN1C(=O)CNC(=O)c1ccnc2ccc(N3CC(N4CCOCC4)C3)cc12 [Example 122, (R)—N-(2-(4-Cyanothiazolidin-3-yl)-2-oxoethyl)-6-(3-morpholinoazetidin-1-yl)quinoline-4-carboxamide] | 0.049 | 0.000043 | 1300000 | 0.033 | 840 | > 1000 | 0.2 | 10 | 50 | <1 | < 3 | – | – | – |
| CC1(O)CCN(c2ccc3nccc(C(=O)NCC(=O)N4CSC[C@H]4C#N)c3c2)CC1 [Example 190, (R)—N-(2-(4-Cyanothiazolidin-3-yl)-2-oxoethyl)-6-(4-hydroxy-4-methyl-piperidin-1-yl)quinoline-4-carboxamide] | 0.069 | 0.000036 | 1800000 | 0.02 | 690 | > 1000 | 0.32 | 7.6 | 24 | <1 | < 3 | – | – | – |
| CCC1(O)CCN(c2ccc3nccc(C(=O)NCC(=O)N4CSC[C@H]4C#N)c3c2)CC1 [Example 189, (R)—N-(2-(4-Cyanothiazolidin-3-yl)-2-oxoethyl)-6-(4-ethyl-4-hydroxy-piperidin-1-yl)quinoline-4-carboxamide] | 0.056 | 0.000051 | 2600000 | 0.02 | 440 | 840 (≈ 381 µg/mL) | 0.29 | 13 | 46 | <1 | 11 | – | – | – |
| C[C@H]1CCN(c2ccc3nccc(C(=O)NCC(=O)N4CSC[C@H]4C#N)c3c2)C1=O (single isomer, unassigned) [Example 201, N-(2-((R)-4-Cyanothiazolidin-3-yl)-2-oxoethyl)-6-((R*)-3-methyl-2-oxopyrrolidin-1-yl)quinoline-4-carboxamide] | < 0.025 | 0.00010 | 1800000 | 0.059 | 610 | 90 (≈ 38.1 µg/mL) | – | – | – | <1 | < 3 | 4.8 | – | – |
| N#C[C@@H]1CSCN1C(=O)CNC(=O)c1ccnc2ccc(N3CCC(=O)CC3)cc12 [Example 230, (R)—N-(2-(4-cyanothiazolidin-3-yl)-2-oxoethyl)-6-(4-oxopiperidin-1-yl)quinoline-4-carboxamide] | 0.078 | – | – | – | 600 | > 1000 | 34 | 17 | – | 2.8 | < 3 | 2 | – | – |
| N#C[C@@H]1CSCN1C(=O)CNC(=O)c1ccnc2ccc(N3CCC4(CC3)COC4)cc12 [Example 229, (R)—N-(2-(4-cyanothiazolidin-3-yl)-2-oxoethyl)-6-(2-oxa-7-azaspiro[3.5]nonan-7-yl)quinoline-4-carboxamide] | 0.091 | 0.000026 | 2400000 | 0.01 | 320 | – | 22 | 32 | – | 15 | – | 0.7 | > 1000 | < 3 |
| CC1(O)CN(c2ccc3nccc(C(=O)NCC(=O)N4CSC[C@H]4C#N)c3c2)C1 [Example 165, (R)—N-(2-(4-Cyanothiazolidin-3-yl)-2-oxoethyl)-6-(3-hydroxy-3-methyl-azetidin-1-yl)quinoline-4-carboxamide] | 0.32 | 0.000063 | 1200000 | 0.051 | 670 | > 1000 | – | – | – | <1 | < 3 | 0.51 | – | – |
| N#C[C@@H]1CSCN1C(=O)CNC(=O)c1ccnc2ccc(N3CC(F)(F)OC(F)(F)C3)cc12 [Example 5, (R)—N-(2-(4-Cyanothiazolidin-3-yl)-2-oxoethyl)-6-(2,2,6,6-tetrafluoromorpholino)quinoline-4-carboxamide] | 0.06 | – | – | 0.049 | 220 | 11 (≈ 5.32 µg/mL) | 1.9 | 32 | 17 | 32 | 93 | – | – | – |
| C[C@@]1(O)CCN(c2ccc3nccc(C(=O)NCC(=O)N4CSC[C@H]4C#N)c3c2)C1 [Example 167, N-(2-((R)-4-Cyanothiazolidin-3-yl)-2-oxoethyl)-6-((R)-3-hydroxy-3-methylpyrrolidin-1-yl)quinoline-4-carboxamide] | 0.091 | – | – | – | 1000 | 240 (≈ 102 µg/mL) | 0.13 | 9.5 | 74 | <1 | < 3 | – | – | – |
